In publication PMC4077706, “Lifting the Mask: Identification of New Small Molecule Inhibitors of Uropathogenic Escherichia coli Group 2 Capsule Biogenesis” (PLoS ONE, 2014):

Legend:
Bradykinin B1 = biological target: T1, Bradykinin B1 (Homo sapiens, UniProt P46663); format: binding; conditions: 10 µM
T1 construct: Human IMR-90 cells; host or cells: IMR-90 cells

Adrenergic α1B = biological target: T2, Adrenergic α1B (Rattus norvegicus, UniProt P15823); format: binding; conditions: 10 µM
T2 construct: Wistar Rat liver; tissue Eurofins Panlabs (assay Cat #) 203200; host or cells: Wistar rat liver

Opiate µ(OP3, MOP) = biological target: T3, Opiate µ(OP3, MOP) (Homo sapiens, UniProt P35372); format: binding; conditions: 10 µM
T3 construct: host or cells: CHO-K1 cells

Adrenergic β1 = biological target: T4, Adrenergic β1 (Homo sapiens, UniProt P08588); format: binding; conditions: 10 µM
T4 construct: host or cells: CHO-K1 cells

[1] = biological target: T5, Serotonin (5-Hydroxytryptamine) 5-HT1A (Homo sapiens, UniProt P08908); assay: Radioligand binding 271110; conditions: 10 µM
T5 construct: host or cells: CHO-K1

Melatonin MT1 = biological target: T6, Melatonin MT1 (Homo sapiens, UniProt P48039); format: binding; conditions: 10 µM
T6 construct: host or cells: CHO-K1 cells

[2] = biological target: T7, Transporter, Serotonin (5-Hydroxytryptamine) (SERT) (Homo sapiens, UniProt P31645); format: binding; conditions: 10 µM
T7 construct: host or cells: HEK-293

Glutamate, NMDA, Glycine = Glutamate, NMDA, Glycine (Rattus norvegicus, UniProt P35439); format: binding; parameters: Wistar Rat cerebral cortex; tissue Eurofins Panlabs 232910; host or cells: Wistar rat cerebral cortex; conditions: 10 µM
[3] = biological target: Serotonin (5-Hydroxytryptamine) 5-HT3 (Homo sapiens, UniProt P46098); format: binding; parameters: host or cells: HEK-293; conditions: 10 µM
[4] = test system: Bladder carcinoma 5637 cells; format: cell-based
Method: Testing was performed essentially as previously described, [44]. Concentration-response testing was performed over a range 0.58–300 µM in a […] plate format. Bladder carcinoma 5637 cells (ATCC HTB-9) were added to the compounds, and 72 hrs later cell viability was measured using CellTiter Glo (Promega). […] Hyamine was used as a positive cytotoxic control. All wells contained 0.5% DMSO.

[5] = biological target: Transporter, Dopamine (DAT) (Homo sapiens, UniProt Q01959); format: binding; parameters: host or cells: CHO-K1; conditions: 10 µM
[6] = test system: E. coli EV36 (K1:K-12 hybrid strain); assay: T7 phage counter assay; format: cell-based, Escherichia coli; conditions: average of at least 3 replicates ± SEM
Method: This secondary assay was performed as previously described and was used to distinguish compounds with phage inhibitory effects from true polysaccharide capsule inhibitors. […] Thus, the presence of a capsule inhibits T7-mediated lysis. In this assay, an increase in phage-induced lysis correlates to a decrease in capsule formation. […]. […] The positive control molecule C7 (100 µM final well concentration) was used in this screen.

Calcium Channel N-Type = Calcium Channel N-Type (Rattus norvegicus, UniProt Q02294); assay: biochemical; format: binding; conditions: 10 µM
[7] = biological target: T8, Transporter, Norepinephrine (NET) (Homo sapiens, UniProt P23975); format: binding; conditions: 10 µM
T8 construct: host or cells: MDCK

Endothelin ETA = biological target: T9, Endothelin ETA (Homo sapiens, UniProt P25101); format: binding; conditions: 10 µM
T9 construct: host or cells: CHO-K1 cells

[8] = biological target: T10, Leukotriene, Cysteinyl CysLT1 (Homo sapiens, UniProt Q9Y271); assay: Radioligand binding 250460; conditions: 10 µM
T10 construct: host or cells: CHO-K1 cells

Adenosine A3 = Adenosine A3 (Homo sapiens, UniProt P0DMS8); format: binding; conditions: 10 µM
[9] = Human
Purinergic P2Y = assay: Radioligand binding 268810; parameters: species or system rat; conditions: 10 µM
Endothelin ETB = biological target: T11, Endothelin ETB (Homo sapiens, UniProt P24530); format: binding; conditions: 10 µM
T11 construct: host or cells: CHO-K1 cells

Glucocorticoid = Glucocorticoid (Homo sapiens, UniProt P04150); assay: Radioligand binding 232030; parameters: host or cells: insect cells; conditions: 10 µM
E. coli UTI89 = assay: Human serum sensitization (MTT); format: cell-based, Escherichia coli; conditions: 50 µM, pooled human serum, vs DMSO p = 0.0067
[10] = test system: Glutamate, NMDA, Phencyclidine; assay: Radioligand binding 233000; parameters: species or system rat; conditions: 10 µM
[11] = test system: K1 capsule biogenesis in E. coli UTI89; format: cell-based, Escherichia coli; conditions: average of at least 3 replicates ± SEM, read-out: IC50 K1 phage
Method: The primary assay consisted of detection of the presence and absence of the K1 capsule on the E. coli urinary tract isolate UTI89 under growth conditions with compounds from a large chemical library. The assay was conducted as previously described with the following modifications. The primary assay was conducted in 1,536-well plate format. UTI89 ΔkpsM, an isogenic K1 capsule export mutant, was included as an unencapsulated control. Tetracycline, 50 µM, was used as a negative growth control. A 1∶75 dilution of overnight cultures were made in LB broth containing 0.5% DMSO, and 3 µL of this culture was added to each plate well, and plates were incubated, inverted, at 37°C for 2 hr. […]. The plates were centrifuged briefly, and then were incubated, inverted, at 37°C for an additional 2 hr. […] Resorufin fluorescence was measured using excitation of 560 nm and emission of 590 nm, as per the manufacturer's recommendations.
Concentration-response testing (concentration range = 0.58–300 µM) was used to confirm and characterize the primary screen hits, which was necessary to determine the number of compounds advanced to secondary screens. […] The strain UTI89 ΔkpsM, a K1 capsule export mutant, was evaluated with the wild-type strain as a phage-insensitive control (mimicking 100% capsule inhibition).

T2 sequence (P15823 whole entry): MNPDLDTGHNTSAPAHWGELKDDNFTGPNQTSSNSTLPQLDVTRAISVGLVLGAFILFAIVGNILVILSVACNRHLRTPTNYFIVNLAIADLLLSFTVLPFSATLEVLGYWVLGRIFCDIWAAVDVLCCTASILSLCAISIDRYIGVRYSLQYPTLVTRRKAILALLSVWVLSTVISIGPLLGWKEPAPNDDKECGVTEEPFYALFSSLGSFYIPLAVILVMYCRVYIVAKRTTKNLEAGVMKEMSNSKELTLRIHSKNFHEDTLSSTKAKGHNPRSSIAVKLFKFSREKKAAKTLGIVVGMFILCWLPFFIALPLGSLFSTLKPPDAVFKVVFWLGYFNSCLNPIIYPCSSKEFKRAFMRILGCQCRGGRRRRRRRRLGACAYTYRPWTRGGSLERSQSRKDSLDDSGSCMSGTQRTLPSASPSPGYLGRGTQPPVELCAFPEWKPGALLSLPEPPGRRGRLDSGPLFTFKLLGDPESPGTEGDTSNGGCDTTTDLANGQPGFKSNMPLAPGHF
T11 sequence (P24530 27-442): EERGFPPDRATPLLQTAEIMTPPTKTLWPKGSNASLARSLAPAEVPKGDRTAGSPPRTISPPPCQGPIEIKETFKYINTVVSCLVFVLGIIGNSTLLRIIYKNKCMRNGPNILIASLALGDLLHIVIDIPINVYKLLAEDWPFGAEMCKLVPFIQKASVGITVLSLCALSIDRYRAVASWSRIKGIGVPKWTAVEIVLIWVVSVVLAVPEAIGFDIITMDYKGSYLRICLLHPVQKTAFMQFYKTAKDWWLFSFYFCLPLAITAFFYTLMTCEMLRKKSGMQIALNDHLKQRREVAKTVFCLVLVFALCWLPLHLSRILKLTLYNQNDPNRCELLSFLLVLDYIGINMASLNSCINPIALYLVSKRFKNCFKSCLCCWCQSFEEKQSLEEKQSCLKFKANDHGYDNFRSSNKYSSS
Calcium Channel N-Type, sequence (Q02294 whole entry, looked up): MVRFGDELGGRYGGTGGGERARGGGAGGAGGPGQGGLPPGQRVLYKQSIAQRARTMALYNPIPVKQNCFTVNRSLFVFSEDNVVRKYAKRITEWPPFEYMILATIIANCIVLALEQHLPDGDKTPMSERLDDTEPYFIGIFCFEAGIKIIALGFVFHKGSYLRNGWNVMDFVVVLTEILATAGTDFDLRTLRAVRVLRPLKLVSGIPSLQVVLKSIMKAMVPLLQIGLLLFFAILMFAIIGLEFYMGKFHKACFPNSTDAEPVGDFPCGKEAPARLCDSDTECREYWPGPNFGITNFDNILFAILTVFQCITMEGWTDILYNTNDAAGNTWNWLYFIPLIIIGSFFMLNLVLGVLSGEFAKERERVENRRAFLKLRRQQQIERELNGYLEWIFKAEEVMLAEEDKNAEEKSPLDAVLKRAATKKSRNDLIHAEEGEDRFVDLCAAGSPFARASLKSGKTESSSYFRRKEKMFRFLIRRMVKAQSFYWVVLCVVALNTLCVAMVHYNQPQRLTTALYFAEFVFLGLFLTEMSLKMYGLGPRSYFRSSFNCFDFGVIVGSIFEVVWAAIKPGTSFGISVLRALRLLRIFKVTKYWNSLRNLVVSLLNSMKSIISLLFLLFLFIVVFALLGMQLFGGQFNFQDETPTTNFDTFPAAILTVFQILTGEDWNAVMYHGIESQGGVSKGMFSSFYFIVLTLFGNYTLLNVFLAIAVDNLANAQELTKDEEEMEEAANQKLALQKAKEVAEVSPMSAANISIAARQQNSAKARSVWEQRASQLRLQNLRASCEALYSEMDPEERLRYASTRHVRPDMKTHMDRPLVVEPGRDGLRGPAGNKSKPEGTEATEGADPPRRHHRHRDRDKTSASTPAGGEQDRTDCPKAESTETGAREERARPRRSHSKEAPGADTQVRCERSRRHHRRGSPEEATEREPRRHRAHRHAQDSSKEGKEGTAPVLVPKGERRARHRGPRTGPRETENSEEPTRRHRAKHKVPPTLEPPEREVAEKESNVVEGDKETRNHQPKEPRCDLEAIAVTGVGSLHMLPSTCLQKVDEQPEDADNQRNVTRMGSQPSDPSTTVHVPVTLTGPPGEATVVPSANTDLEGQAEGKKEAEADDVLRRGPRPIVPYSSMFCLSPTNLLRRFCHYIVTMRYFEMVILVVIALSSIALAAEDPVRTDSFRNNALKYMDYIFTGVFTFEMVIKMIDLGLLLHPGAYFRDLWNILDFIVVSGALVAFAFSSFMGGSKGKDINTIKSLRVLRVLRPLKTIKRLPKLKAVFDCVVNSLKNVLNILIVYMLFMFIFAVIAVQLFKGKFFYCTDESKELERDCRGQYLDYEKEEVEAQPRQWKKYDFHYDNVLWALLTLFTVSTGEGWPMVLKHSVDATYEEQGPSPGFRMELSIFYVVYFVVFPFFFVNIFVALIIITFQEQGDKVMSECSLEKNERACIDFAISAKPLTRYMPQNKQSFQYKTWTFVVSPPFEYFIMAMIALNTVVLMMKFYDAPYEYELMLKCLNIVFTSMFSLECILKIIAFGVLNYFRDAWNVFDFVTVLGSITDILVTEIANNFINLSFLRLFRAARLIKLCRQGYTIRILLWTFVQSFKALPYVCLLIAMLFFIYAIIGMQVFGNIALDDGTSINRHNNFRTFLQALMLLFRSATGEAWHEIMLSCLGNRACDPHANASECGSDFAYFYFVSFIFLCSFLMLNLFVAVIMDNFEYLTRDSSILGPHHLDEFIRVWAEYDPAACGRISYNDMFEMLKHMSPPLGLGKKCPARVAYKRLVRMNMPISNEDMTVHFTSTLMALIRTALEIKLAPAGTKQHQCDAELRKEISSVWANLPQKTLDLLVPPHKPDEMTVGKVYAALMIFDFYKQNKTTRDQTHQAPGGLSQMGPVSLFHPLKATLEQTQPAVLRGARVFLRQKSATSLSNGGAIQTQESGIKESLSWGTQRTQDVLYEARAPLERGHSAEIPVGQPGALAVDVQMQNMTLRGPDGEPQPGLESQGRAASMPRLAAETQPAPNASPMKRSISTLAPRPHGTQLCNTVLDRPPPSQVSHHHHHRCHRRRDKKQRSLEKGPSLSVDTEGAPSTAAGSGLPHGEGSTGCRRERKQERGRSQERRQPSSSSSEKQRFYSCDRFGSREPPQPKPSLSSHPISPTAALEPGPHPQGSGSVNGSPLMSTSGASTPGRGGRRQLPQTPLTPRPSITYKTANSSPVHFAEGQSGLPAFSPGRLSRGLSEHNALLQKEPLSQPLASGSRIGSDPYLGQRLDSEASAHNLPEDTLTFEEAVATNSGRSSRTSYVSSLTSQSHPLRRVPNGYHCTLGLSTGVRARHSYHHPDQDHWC
T9 sequence (P25101 21-427): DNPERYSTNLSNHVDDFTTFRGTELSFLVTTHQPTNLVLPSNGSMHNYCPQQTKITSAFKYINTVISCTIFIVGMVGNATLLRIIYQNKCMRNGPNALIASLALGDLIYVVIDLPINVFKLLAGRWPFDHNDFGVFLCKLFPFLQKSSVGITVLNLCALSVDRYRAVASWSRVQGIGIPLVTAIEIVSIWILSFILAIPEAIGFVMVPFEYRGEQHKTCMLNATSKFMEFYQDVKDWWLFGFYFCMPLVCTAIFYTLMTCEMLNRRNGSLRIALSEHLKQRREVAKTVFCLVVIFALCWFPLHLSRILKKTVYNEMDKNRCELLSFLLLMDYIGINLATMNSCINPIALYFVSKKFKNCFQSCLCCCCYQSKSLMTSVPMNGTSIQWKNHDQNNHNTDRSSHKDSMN
T3 sequence (P35372 whole entry): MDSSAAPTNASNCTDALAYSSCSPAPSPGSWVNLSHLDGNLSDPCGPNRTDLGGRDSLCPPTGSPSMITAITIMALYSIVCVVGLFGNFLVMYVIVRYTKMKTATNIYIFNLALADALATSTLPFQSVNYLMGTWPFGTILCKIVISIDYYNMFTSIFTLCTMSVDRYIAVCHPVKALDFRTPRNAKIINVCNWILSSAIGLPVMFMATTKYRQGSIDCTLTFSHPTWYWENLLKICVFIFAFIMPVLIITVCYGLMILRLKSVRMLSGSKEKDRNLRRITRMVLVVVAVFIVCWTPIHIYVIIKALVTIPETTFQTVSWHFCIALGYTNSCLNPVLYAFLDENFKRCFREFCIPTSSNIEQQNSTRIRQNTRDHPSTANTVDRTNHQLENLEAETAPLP
Transporter, Dopamine (DAT), sequence (Q01959 whole entry): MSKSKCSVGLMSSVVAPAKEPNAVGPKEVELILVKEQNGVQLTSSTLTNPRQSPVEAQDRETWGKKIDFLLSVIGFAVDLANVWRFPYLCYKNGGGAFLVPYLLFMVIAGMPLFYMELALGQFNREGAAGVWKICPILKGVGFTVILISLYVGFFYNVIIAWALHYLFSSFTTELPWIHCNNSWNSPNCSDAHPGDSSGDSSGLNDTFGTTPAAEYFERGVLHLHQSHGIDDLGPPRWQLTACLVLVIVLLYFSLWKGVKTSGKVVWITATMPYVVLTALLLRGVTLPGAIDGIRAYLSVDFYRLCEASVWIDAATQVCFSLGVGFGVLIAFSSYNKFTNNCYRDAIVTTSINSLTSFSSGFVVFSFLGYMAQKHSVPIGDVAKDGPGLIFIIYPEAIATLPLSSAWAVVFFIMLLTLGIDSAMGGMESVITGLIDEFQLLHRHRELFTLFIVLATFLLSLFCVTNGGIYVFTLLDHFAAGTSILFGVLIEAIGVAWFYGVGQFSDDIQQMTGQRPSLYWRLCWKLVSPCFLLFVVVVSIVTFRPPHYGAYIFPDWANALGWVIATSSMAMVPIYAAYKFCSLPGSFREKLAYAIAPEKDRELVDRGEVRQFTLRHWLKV
T6 sequence (P48039 whole entry): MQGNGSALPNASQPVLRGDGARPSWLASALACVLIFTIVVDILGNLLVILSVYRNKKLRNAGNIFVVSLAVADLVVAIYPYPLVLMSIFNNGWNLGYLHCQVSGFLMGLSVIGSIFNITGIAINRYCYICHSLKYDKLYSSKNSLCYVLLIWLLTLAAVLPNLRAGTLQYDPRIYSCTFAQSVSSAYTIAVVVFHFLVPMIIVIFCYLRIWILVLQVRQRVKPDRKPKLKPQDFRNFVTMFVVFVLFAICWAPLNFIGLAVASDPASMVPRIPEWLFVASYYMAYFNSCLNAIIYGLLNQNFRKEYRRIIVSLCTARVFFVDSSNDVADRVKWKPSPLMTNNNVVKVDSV

CCOc1ccc(-c2cc(NC(=O)c3c(F)cccc3F)c(C(=O)O)s2)cc1 [DU011]
% Inh. (Bradykinin B1): 12%
% Inh. (Adrenergic α1B): 14%
% Inh. (Opiate µ(OP3, MOP)): 1%
% Inh. (Adrenergic β1): 3%
% Inh. [1]: 11%
% Inh. (Melatonin MT1): 7%
% Inh. [2]: 5%
% Inh. (Glutamate, NMDA, Glycine): 6%
% Inh. [3]: -7%
Selectivity (CC50/IC50) [4]: 13.3
CC50 ([4]; 5637 cells, 72 hrs, ± SEM, read-out: Cytotoxicity (CC50)): 51.6 ± 13.6 µM
% Inh. [5]: -13%
IC50 [6]: 0.69 ± 0.78 µM
% Inh. (Calcium Channel N-Type): -18%
% Inh. [7]: 58%
% Inh. (Endothelin ETA): -4%
% Inh. [8]: 19%
% Inh. (Adenosine A3): -5%
Hepatic Microsome Stability, percent remaining at 1 hr [9]: 89.64%
% Inh. (Purinergic P2Y): 1%
% Inh. (Endothelin ETB): 3%
% Inh. (Glucocorticoid): 16%
serum-mediated killing of UPEC (MTT) (E. coli UTI89): further increased serum-mediated killing
% Inh. [10]: 2%
IC50 [11]: 4.5 ± 2.5 µM
